Reference: patent publication US8586739B2, “Heterocyclic compounds and their uses” (Amgen Inc., priority 2007, dated 2013)

System: human B cells
Assay: Human B cells proliferation stimulated by anti-IgM (3H thymidine)
Type: cell-based
Procedure: Human B Cells Proliferation stimulate by anti-IgM
Isolate PBMCs from Leukopac or from human fresh blood. Isolate human B cells by using Miltenyi protocol and B cell isolation kit II.—human B cells were Purified by using autoMACS® column.
Activation of Human B Cells
Use 96 well Flat bottom plate, plate 50000/well purified B cells in B cell proffer-ation medium (DMEM+5% FCS, 10 mM Hepes, 50 μM 2-mercaptoethanol); 150 μL medium contain 250 ng/mL CD40L-LZ recombinant protein (Amgen) and 2 μg/mL anti-Human IgM antibody (Jackson ImmunoReseach Lab.#109-006-129), mixed with 50 μL B cell medium containing PI3K inhibitors and incubate 72 h at 37° C. incubator. After 72 h, pulse labeling B cells with 0.5-1 uCi/well ^3H thymidine for overnight ˜18 h, and harvest cell using TOM harvester.

[1] = Homo sapiens, B-cell, 72 h, purified human B cells, anti-Human IgM + CD40L-LZ

Structure (SMILES) | IC50 [1] | IC50 (Homo sapiens, B-cell, purified human B cells, anti-Human IgM + CD40L-LZ, 72 h)
OC1CCCN(c2nc3c(Cl)cccc3cc2CNc2ncnc3[nH]cnc23)C1 (stereo not shown) [1-(8-chloro-3-((9H-purin-6-ylamino)methyl)-2-quinolinyl)-3-piperidinol] | 98.8 nM | –
C[C@H](Nc1ncnc2[nH]cnc12)c1cc2cccc(C#N)c2nc1-c1cccc(F)c1 [2-(3-fluorophenyl)-3-((1S)-1-(9H-purin-6-ylamino)ethyl)-8-quinolinecarbonitrile] | 3.38 nM | –
N#Cc1cccc2cc(CNc3ncnc4[nH]cnc34)c(-c3cccc(F)c3)nc12 [2-(3-fluorophenyl)-3-((9H-purin-6-ylamino)methyl)-8-quinolinecarbonitrile] | 300 nM | –
Oc1ccc(F)cc1-c1nc2c(Cl)cccc2cc1CNc1ncnc2[nH]cnc12 [2-(8-chloro-3-((9H-purin-6-ylamino)methyl)-2-quinolinyl)-4-fluorophenol] | 819 nM | –
N#Cc1ccccc1-c1nc2c(Cl)cccc2cc1CNc1ncnc2[nH]cnc12 [2-(8-chloro-3-((9H-purin-6-ylamino)methyl)-2-quinolinyl)benzonitrile] | 55.1 nM | –
C[C@H](Nc1ncnc2[nH]cnc12)c1cc2cccc(Cl)c2nc1-c1cnccc1C(N)=O [3-(8-chloro-3-((1S)-1-(9H-purin-6-ylamino)ethyl)-2-quinolinyl)-4-pyridinecarboxamide] | 4640 nM | –
C[C@H](Nc1ncnc2[nH]cnc12)c1cc2cccc(C#N)c2nc1-c1ccccn1 [3-((1S)-1-(9H-purin-6-ylamino)ethyl)-2-(2-pyridinyl)-8-quinolinecarbonitrile] | 46.7 nM | –
Clc1cccc2cc(COc3ncnc4[nH]cnc34)c(-c3ccccc3)nc12 [8-chloro-2-phenyl-3((9H-purin-6-yloxy)methyl)quinoline] | 81.4 nM | –
C[C@H](Oc1ncnc2[nH]ccc12)c1cc2cccc(Cl)c2nc1-c1ccccc1 [8-chloro-2-phenyl-3-((1S)-1-(7H-pyrrolo[2,3-d]pyrimidin-4-yloxy)ethyl)quinoline] | 3.04 nM | –
OCC[C@H](Nc1ncnc2[nH]cnc12)c1cc2cccc(Cl)c2nc1-c1ccccc1Cl [(3S)-3-(8-chloro-2-(2-chlorophenyl)-3-quinolinyl)-3-(9H-purin-6-ylamino)-1-propanol] | 13.1 nM | –
C[C@H](Nc1ncnc2[nH]cnc12)c1cc2cccc(F)c2nc1-c1ccccc1 [(S)—N-(1-(8-fluoro-2-phenylquinolin-3-yl)ethyl)-9H-purin-6-amine] | 1.42 nM | –
Nc1nc(NCc2cc3cccc(Cl)c3nc2-c2ccccc2Cl)c2nc[nH]c2n1 [N6-((8-chloro-2-(2-chlorophenyl)-3-quinolinyl)methyl)-9H-purine-2,6-diamine] | 8.9 nM | –
C[C@@H](Nc1ncnc2[nH]cnc12)c1nc2cccc(C(F)(F)F)c2nc1-c1ccccc1Cl [N-((1R)-1-(3-(2-chlorophenyl)-5-(trifluoromethyl)-2-quinoxalinyl)ethyl)-9H-purin-6-amine] | 53.4 nM | –
C[C@@H](Nc1ncnc2[nH]cnc12)c1nc2cccc(Cl)c2cc1-c1cccc(F)c1 [N-((1R)-1-(5-chloro-3-(3-fluorophenyl)-2-quinolinyl)ethyl)-9H-purin-6-amine] | 21 nM | –
C[C@@H](Nc1ncnc2[nH]cnc12)c1cc2cccc(Cl)c2nc1-c1nccs1 [N-((1R)-1-(8-chloro-2-(1,3-thiazol-2-yl)-3-quinolinyl)ethyl)-9H-purin-6-amine] | 182 nM | –
C[C@H](Nc1ncnc2[nH]cnc12)c1cc2cccc(-c3cccc(F)c3)c2nc1-c1cccc(F)c1 [N-((1S)-1-(2,8-bis(3-fluorophenyl)-3-quinolinyl)ethyl)-9H-purin-6-amine] | 1.06 nM | –
C[C@H](Nc1ncnc2[nH]cnc12)c1cc2cccc(-c3ccccn3)c2nc1-c1ccccn1 [N-((1S)-1-(2,8-di-2-pyridinyl-3-quinolinyl)ethyl)-9H-purin-6-amine] | 67.4 nM | –
C[C@H](Nc1ncnc2[nH]cnc12)c1cc2cccc(-c3ccccc3)c2nc1-c1ccccc1 [N-((1S)-1-(2,8-diphenyl-3-quinolinyl)ethyl)-9H-purin-6-amine] | 18.8 nM | –
C[C@H](Nc1ncnc2nc[nH]c12)c1cc2cccc(F)c2nc1-c1cc(F)ccc1F [N-((1S)-1-(2-(2,5-difluorophenyl)-8-fluoro-3-quinolinyl)ethyl)-7H-purin-6-amine] | 12.7 nM | –
C[C@H](Nc1ncnc2[nH]cnc12)c1cc2cccc(Cl)c2nc1-c1cc(F)ccc1OCc1ccccc1 [N-((1S)-1-(2-(2-(benzyloxy)-5-fluorophenyl)-8-chloro-3-quinolinyl)ethyl)-9H-purin-6-amine] | 16.8 nM | –
C[C@H](Nc1ncnc2[nH]cnc12)c1cc2ccc(F)cc2nc1-c1cc(F)ccc1Cl [N-((1S)-1-(2-(2-chloro-5-fluorophenyl)-7-fluoro-3-quinolinyl)ethyl)-9H-purin-6-amine] | 20 nM | –

Structure (SMILES) | IC50 [1] | IC50 (Homo sapiens, B-cell, purified human B cells, anti-Human IgM + CD40L-LZ, 72 h)
C[C@H](Nc1ncnc2nc[nH]c12)c1cc2cccc(F)c2nc1-c1cc(F)ccc1Cl [N-((1S)-1-(2-(2-chloro-5-fluorophenyl)-8-fluoro-3-quinolinyl)ethyl)-7H-purin-6-amine] | 33.7 nM | –
C[C@H](Nc1ncnc2[nH]cnc12)c1cc2ccc(F)cc2nc1-c1ccccc1Cl [N-((1S)-1-(2-(2-chlorophenyl)-7-fluoro-3-quinolinyl)ethyl)-9H-purin-6-amine] | 29 nM | 29 nM
C[C@H](Nc1ncnc2nc[nH]c12)c1cc2cccc(F)c2nc1-c1ccccc1Cl [N-((1S)-1-(2-(2-chlorophenyl)-8-fluoro-3-quinolinyl)ethyl)-7H-purin-6-amine] | 11.4 nM | –
C[C@H](Nc1ncnc2[nH]cnc12)c1cc2ccccc2nc1-c1ccccn1 [N-((1S)-1-(2-(2-pyridinyl)-3-quinolinyl)ethyl)-9H-purin-6-amine] | 5.6 nM | –
C[C@H](Nc1ncnc2[nH]cnc12)c1cc2ccc(F)cc2nc1-c1cc(F)cc(F)c1 [N-((1S)-1-(2-(3,5-difluorophenyl)-7-fluoro-3-quinolinyl)ethyl)-9H-purin-6-amine] | 5.15 nM | –
C[C@H](Nc1ncnc2nc[nH]c12)c1cc2cccc(F)c2nc1-c1cc(F)cc(F)c1 [N-((1S)-1-(2-(3,5-difluorophenyl)-8-fluoro-3-quinolinyl)ethyl)-7H-purin-6-amine] | 7.07 nM | –
C[C@H](Nc1ncnc2nc[nH]c12)c1cc2cccc(F)c2nc1-c1cc(F)cc(Cl)c1 [N-((1S)-1-(2-(3-chloro-5-fluorophenyl)-8-fluoro-3-quinolinyl)ethyl)-7H-purin-6-amine] | 8.09 nM | –
C[C@H](Nc1ncnc2[nH]cnc12)c1nc2cccc(C(F)(F)F)c2nc1-c1ccccc1Cl [N-((1S)-1-(3-(2-chlorophenyl)-5-(trifluoromethyl)-2-quinoxalinyl)ethyl)-9H-purin-6-amine] | 10.4 nM | –
C[C@H](Nc1ncnc2[nH]cnc12)c1nc2cccc(Cl)c2nc1-c1cc(F)ccc1Cl [N-((1S)-1-(5-chloro-3-(2-chloro-5-fluorophenyl)-2-quinoxalinyl)ethyl)-9H-purin-6-amine] | 89.3 nM | –
C[C@H](Nc1ncnc2[nH]cnc12)c1nc2cccc(Cl)c2cc1-c1cccc(F)c1 [N-((1S)-1-(5-chloro-3-(3-fluorophenyl)-2-quinolinyl)ethyl)-9H-purin-6-amine] | 8.78 nM | –
C[C@H](Nc1ncnc2[nH]cnc12)c1cc2ccc(F)cc2[n+]([O-])c1-c1ccccc1 [N-((1S)-1-(7-fluoro-1-oxido-2-phenyl-3-quinolinyl)ethyl)-9H-purin-6-amine] | 4.64 nM | –
C[C@H](Nc1ncnc2[nH]cnc12)c1cc2ccc(F)cc2nc1-c1ccccc1S(C)(=O)=O [N-((1S)-1-(7-fluoro-2-(2-(methylsulfonyl)phenyl)-3-quinolinyl)ethyl)-9H-purin-6-amine] | 6.82 nM | –
C[C@H](Nc1ncnc2[nH]cnc12)c1cc2ccc(F)cc2nc1-c1cccc(S(C)(=O)=O)c1 [N-((1S)-1-(7-fluoro-2-(3-(methylsulfonyl)phenyl)-3-quinolinyl)ethyl)-9H-purin-6-amine] | 148 nM | –
C[C@H](Nc1ncnc2[nH]cnc12)c1cc2ccc(F)cc2nc1-c1cccc(F)c1 [N-((1S)-1-(7-fluoro-2-(3-fluorophenyl)-3-quinolinyl)ethyl)-9H-purin-6-amine] | 11.5 nM | –
C[C@H](Nc1ncnc2[nH]cnc12)c1cc2ccc(F)cc2nc1-c1cccnc1 [N-((1S)-1-(7-fluoro-2-(3-pyridinyl)-3-quinolinyl)ethyl)-9H-purin-6-amine] | 12.2 nM | –
C[C@H](Nc1ncnc2[nH]cnc12)c1cc2ccc(F)cc2nc1-c1cccc(F)n1 [N-((1S)-1-(7-fluoro-2-(6-fluoro-2-pyridinyl)-3-quinolinyl)ethyl)-9H-purin-6-amine] | 3.72 nM | –
C[C@H](Nc1ncnc2[nH]cnc12)c1cc2ccc(F)cc2nc1-c1ccccc1 [N-((1S)-1-(7-fluoro-2-phenyl-3-quinolinyl)ethyl)-9H-purin-6-amine] | 5.11 nM | –
C[C@H](Nc1ncnc2[nH]cnc12)c1cc2cccc(Cl)c2nc1-c1nccs1 [N-((1S)-1-(8-chloro-2-(1,3-thiazol-2-yl)-3-quinolinyl)ethyl)-9H-purin-6-amine] | 1.64 nM | –
C[C@H](Nc1ncnc2[nH]cnc12)c1cc2cccc(Cl)c2nc1-c1cscn1 [N-((1S)-1-(8-chloro-2-(1,3-thiazol-4-yl)-3-quinolinyl)ethyl)-9H-purin-6-amine] | 0.537 nM | –
C[C@H](Nc1ncnc2[nH]cnc12)c1cc2cccc(Cl)c2nc1-c1ccc(F)cc1F [N-((1S)-1-(8-chloro-2-(2,4-difluorophenyl)-3-quinolinyl)ethyl)-9H-purin-6-amine] | 14 nM | –
C[C@H](Nc1ncnc2[nH]cnc12)c1cc2cccc(Cl)c2nc1-c1cc(F)ccc1Cl [N-((1S)-1-(8-chloro-2-(2-chloro-5-fluorophenyl)-3-quinolinyl)ethyl)-9H-purin-6-amine] | 46.6 nM | –
